Assay results reported in patent publication US8293506B2, “L-cysteine-producing bacterium and a method for producing L-cysteine” (Ajinomoto Co., Inc., priority 2009, dated 2012).

Columns and labels:
[1] = tested on: OstA protein; experiment: Oxidized and reduced states of OstA protein (AMS modification, Western blotting); type: cell-based, Escherichia coli; details: wild-type strain with pmyc-OstA, 5 mM L-cysteine; FIG. 3
From the text: Since it was elucidated that the reduced type DsbA was accumulated by cysteine (reduction stress), it was decided to investigate toxicity of cysteine and oxidized and reduced states of a protein in the periplasm. The OstA is a protein in the periplasm indispensable to growth, and requires disulfide bond formed by DsbA. In order to investigate the oxidized and reduced states of the OstA protein, the E. coli BW25113 strain as the wild-type parent strain and the dsbA-deficient JW3832 strain derived from the BW25113 strain were used, and the plasmid pmyc-OstA for expressing OstA fused with an Myc tag (Kadokura, H. et al., 2004, Science, 303, 534-537) was introduced into them. Under the same culture conditions as those of the aforementioned experiment for investigating the oxidized and reduced states of DsbA, addition of L-cysteine (final concentration: 5 mM) and modification of the protein with AMS (4-acetamido-4′-maleimidyl-stilbene-2,2′-disulfonate) were performed, and the OstA protein was detected by Western blotting. As the antibody, anti-Myc (mouse) was used in this experiment.

[2] = target: T1, DsbA protein (Escherichia coli, UniProt P0AEG4); experiment: Oxidized and reduced states of DsbA protein (AMS modification, Western blotting); type: cell-based; details: wild-type strain, 5 mM cysteine, 20 minutes; FIG. 2
T1 construct: endogenous in cells; host or cells: E. coli BW25113 (wild-type strain, also with pYdeD)
From the text: The strains used in this experiment were the E. coli BW25113 strain (Andreas Haldimann and Barry L. Wanner, J. Bacteriol., 2001 November, 183 (21):6384-6393) as a wild-type parent strain, the dsbA-deficient JW3832 strain and dsbB-deficient JW5182 strain derived from BW25113 strain (Baba, T, et al., 2006, Mol. Syst. Biol., 2:2006.0008). As a plasmid carrying the dsbB gene, pDsbB (ASKA clone, Kitagawa, M. et al., 2005, DNA Res., 12:291-9) was used.
In order to distinguish the oxidized state and the reduced state of the DsbA protein, the protein was modified with AMS (4-acetamido-4′-maleimidyl-stilbene-2,2′-disulfonate) (Kadokura, H. et al., 2004, Science, 303, 534-537). Each of the wild-type strain, the dsbA-deficient strain, the dsbB-deficient strain, the wild-type strain +pYdeD and the dsbB-deficient strain +pDsbB was cultured overnight at 30° C. in 3 ml of LB medium, and the resulting culture was used as a preculture medium. The preculture medium was inoculated into the LB medium in a 1% amount, and culture was performed at 30° C. with shaking until OD660 reached 0.4 to 0.5. […]
The labeled protein was then separated by non-reduced SDS gel electrophoresis (12.5%), and then detected by Western blotting. […] The label was detected by using ECL Plus Western Blotting Detection Reagents (Amersham).

[3] = tested on: wild-type strains (E. coli BW25113); experiment: Screening of Keio collection on LB agar containing cysteine; type: cell-based, Escherichia coli; details: overnight at 37° C.
Procedure: The 3,985 clones of the Keio collection were cultured at 37° C. for 15 hours in 0.5 ml of LB liquid medium. This culture medium was stamped on LB agar media containing cysteine at different concentrations (0, 15, 20, 25 mM), and culture was performed overnight at 37° C. Clones that were cysteine sensitive at the growth inhibition concentration of cysteine for wild-type strains (20 mM) were visually selected. […] A dsbA gene-deficient strain was obtained as a clone showing particularly strong and distinctive cysteine sensitivity among the above candidates.

[4] = tested on: to/C-deficient strain JW5503/pCA24; experiment: Growth test on L agar medium containing cysteine, tolC-deficient strain; type: cell-based, Escherichia coli; details: L agar with 10, 15, 20 mM cysteine, 37° C. overnight; FIG. 1
From the text: (§1) Since a dsbA-deficient strain was obtained by the screening of the Keio Collection, growth of the gene-deficient strain was observed on the agar medium containing cysteine of different concentrations in order to analyze the sensitivity of that strain to cysteine in more detail. Furthermore, as for the to/C gene (Japanese Patent Application No. 2008-040167, Wiriyathanawudhiwong, N. et al., Appl. Microbiol. Biotechnol. (2009) 81:903-913), which was previously obtained in a similar manner, and of which deletion is known to induce cysteine sensitivity, a similar experiment was performed by using a to/C-deficient strain. The dsbA-deficient strain and to/C-deficient strain used in this experiment were JW3832 strain and JW5503 strain, respectively (both were included in the Keio collection), and their parent strain was the BW25113 strain (Andreas Haldimann, A. and Wanner, B. L., J. Bacteriol., 2001 November, 183 (21):6384-6393). The plasmids carrying the dsbA gene and the to/C gene for the complementation experiment were pDsbA and pTo1C (ASKA clone (Kitagawa, M., et al., 2005, DNA Res., 12:291-299)), and the vector used as the base of them was pCA24 (vector for ASKA clone (Kitagawa, M., et al., 2005, DNA Res., 12:291-299)). […]

[5] = tested on: dsbA-deficient strain JW3832/pCA24; experiment: Growth test on L agar medium containing cysteine, dsbA-deficient strain; type: cell-based, Escherichia coli; details: L agar with 10, 15, 20 mM cysteine, 37° C. overnight; FIG. 1
From the text: as §1

T1 sequence (P0AEG4 20-208): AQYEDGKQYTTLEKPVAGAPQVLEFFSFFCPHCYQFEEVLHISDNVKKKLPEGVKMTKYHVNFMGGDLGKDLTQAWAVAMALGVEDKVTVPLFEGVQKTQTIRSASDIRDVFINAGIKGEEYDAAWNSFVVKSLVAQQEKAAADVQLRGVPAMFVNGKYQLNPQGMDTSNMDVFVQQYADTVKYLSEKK

With `N[C@@H](CS)C(=O)O` [cysteine, L-cysteine] the “oxidized/reduced state of OstA after addition of cysteine” value [1] was “the reduced type accumulated”, the “DsbA-DsbB complex after exposure to cysteine” value [2] was “markedly accumulated” and the “oxidized/reduced state of DsbA after exposure to cysteine” value [2] was “the reduced type DsbA accumulated”. For the same molecule, the “growth inhibition concentration of cysteine for wild-type strains” value [3] was 20 mM, the “cysteine sensitivity (growth) compared with control strain BW25113/pCA24” value [4] was “marked cysteine sensitivity” and the “cysteine sensitivity (growth) compared with control strain BW25113/pCA24” value [5] was “marked cysteine sensitivity”.
